Like-named read-outs stand apart in the source and are kept apart here.
How the values were obtained:
Type in all cases: cell-based
[1] = tested on: Staphylococcus aureus ATTC 6538; assay: Antimicrobial disk susceptibility test (CLSI M2-A9), S. aureus
Procedure: (§1) Test for the antimicrobial activity of the novel compounds may be performed according to the standards of Clinical and Laboratory Standards Institute, Performance Standards for Antimicrobial Disk Susceptibility Tests; approved Standard; M2-A), vol. 26 NO. 1 9th ed.
(§2) A test for the antimicrobial activity of the novel compounds were performed according to the standards of Clinical and Laboratory Standards Institute, Performance Standards for Antimicrobial Disk Susceptibility Tests; approved Standard; M2-A), vol. 26 NO. 1 9th ed. The samples were dissolved in 10 ml of sterile Milli-Q water by magnetic stirring overnight at 20° C.
(§3) Two doses of the samples were tested in duplicate, a) and b). The size of the inhibition zones were measured in mm after incubation.

[2] = tested on: Escherichia coli ATCC 8739; assay: Antimicrobial disk susceptibility test (CLSI M2-A9), E. coli
Procedure: as §1, §2, §3

[3] = tested on: Pseudomonas aeruginosa ATCC 9027; assay: Antimicrobial disk susceptibility test (CLSI M2-A9), P. aeruginosa
Procedure: as §1, §2, §3

[4] = tested on: Klebsiella pneumonia ATCC 35657; assay: Antimicrobial disk susceptibility test (CLSI M2-A9), K. pneumonia
Procedure: as §1, §2, §3

[5] = Staphylococcus aureus, ATTC6538; 5 μg/disk, duplicate a); read-out: size of the inhibition zone, S. aureus a)
[6] = Staphylococcus aureus, ATTC6538; 5 μg/disk, duplicate b); read-out: size of the inhibition zone, S. aureus b)
[7] = Staphylococcus aureus, ATTC6538; 10 μg/disk, duplicate a); read-out: size of the inhibition zone, S. aureus a)
[8] = Staphylococcus aureus, ATTC6538; 10 μg/disk, duplicate b); read-out: size of the inhibition zone, S. aureus b)
[9] = Escherichia coli, ATCC8739; 5 μg/disk, duplicate a); read-out: size of the inhibition zone, E. coli a)
[10] = Escherichia coli, ATCC8739; 5 μg/disk, duplicate b); read-out: size of the inhibition zone, E. coli b)
[11] = Escherichia coli, ATCC8739; 10 μg/disk, duplicate a); read-out: size of the inhibition zone, E. coli a)
[12] = Escherichia coli, ATCC8739; 10 μg/disk, duplicate b); read-out: size of the inhibition zone, E. coli b)
[13] = Pseudomonas aeruginosa, ATCC9027; 5 μg/disk, duplicate a); read-out: size of the inhibition zone, P. aeruginosa a)
[14] = Pseudomonas aeruginosa, ATCC9027; 5 μg/disk, duplicate b); read-out: size of the inhibition zone, P. aeruginosa b)
[15] = Pseudomonas aeruginosa, ATCC9027; 10 μg/disk, duplicate a); read-out: size of the inhibition zone, P. aeruginosa a)
[16] = Pseudomonas aeruginosa, ATCC9027; 10 μg/disk, duplicate b); read-out: size of the inhibition zone, P. aeruginosa b)
[17] = Klebsiella pneumoniae, ATCC35657; 5 μg/disk, duplicate a); read-out: size of the inhibition zone, K. pneumonia a)
[18] = Klebsiella pneumoniae, ATCC35657; 5 μg/disk, duplicate b); read-out: size of the inhibition zone, K. pneumonia b)
[19] = Klebsiella pneumoniae, ATCC35657; 10 μg/disk, duplicate a); read-out: size of the inhibition zone, K. pneumonia a)
[20] = Klebsiella pneumoniae, ATCC35657; 10 μg/disk, duplicate b); read-out: size of the inhibition zone, K. pneumonia b)
[21] = 10 μg/disk, one value per organism (reference)

| Compound | size of the inhibition zone, S. aureus a) ([1]; 5 μg/disk, duplicate a)) | size of the inhibition zone, S. aureus b) ([1]; 5 μg/disk, duplicate b)) | size of the inhibition zone, S. aureus a) ([1]; 10 μg/disk, duplicate a)) | size of the inhibition zone, S. aureus b) ([1]; 10 μg/disk, duplicate b)) | size of the inhibition zone, E. coli a) ([2]; 5 μg/disk, duplicate a)) | size of the inhibition zone, E. coli b) ([2]; 5 μg/disk, duplicate b)) | size of the inhibition zone, E. coli a) ([2]; 10 μg/disk, duplicate a)) | size of the inhibition zone, E. coli b) ([2]; 10 μg/disk, duplicate b)) | size of the inhibition zone, P. aeruginosa a) ([3]; 5 μg/disk, duplicate a)) | size of the inhibition zone, P. aeruginosa b) ([3]; 5 μg/disk, duplicate b)) | size of the inhibition zone, P. aeruginosa a) ([3]; 10 μg/disk, duplicate a)) | size of the inhibition zone, P. aeruginosa b) ([3]; 10 μg/disk, duplicate b)) | size of the inhibition zone, K. pneumonia a) ([4]; 5 μg/disk, duplicate a)) | size of the inhibition zone, K. pneumonia b) ([4]; 5 μg/disk, duplicate b)) | size of the inhibition zone, K. pneumonia a) ([4]; 10 μg/disk, duplicate a)) | size of the inhibition zone, K. pneumonia b) ([4]; 10 μg/disk, duplicate b)) | zone of inhibition at 5 µg/disc [1, 5] | zone of inhibition at 5 µg/disc [1, 6] | zone of inhibition at 10 µg/disc [1, 7] | zone of inhibition at 10 µg/disc [1, 8] | further results |
| --- | --- | --- | --- | --- | --- | --- | --- | --- | --- | --- | --- | --- | --- | --- | --- | --- | --- | --- | --- | --- | --- |
| CCC1OC(=O)C(C)C(OC2CC(C)(OC)CC(C)O2)C(C)C(OC2CC(N(C)C)CC(C)O2)C(C)(O)CC(C)CN(C)C(C)C(O)C1(C)O (stereo not shown) [PP006] | <1 mm | <1 mm | <1 mm | <1 mm | <1 mm | <1 mm | <1 mm | <1 mm | <1 mm | <1 mm | <1 mm | <1 mm | <1 mm | <1 mm | <1 mm | <1 mm | – | – | – | – | – |
| CC[C@H]1OC(=O)[C@H](C)C(O[C@H]2C[C@@](C)(OC)[C@@H](O)[C@H](C)O2)[C@H](C)[C@@H](OC2C[C@@H](N(C)C)C[C@@H](C)O2)[C@](C)(O)C[C@@H](C)CN(C)[C@H](C)[C@@H](O)[C@]1(C)O (stereo partly shown) [PP005] | – | – | – | – | – | – | – | – | – | – | – | – | – | – | – | – | < 1 mm | < 1 mm | < 1 mm | < 1 mm | zone of inhibition at 5 µg/disc [2, 9]: < 1 mm; zone of inhibition at 5 µg/disc [2, 10]: < 1 mm; zone of inhibition at 10 µg/disc [2, 11]: < 1 mm; zone of inhibition at 10 µg/disc [2, 12]: < 1 mm; zone of inhibition at 5 µg/disc [3, 13]: < 1 mm; zone of inhibition at 5 µg/disc [3, 14]: < 1 mm; zone of inhibition at 10 µg/disc [3, 15]: < 1 mm; zone of inhibition at 10 µg/disc [3, 16]: < 1 mm; zone of inhibition at 5 µg/disc [4, 17]: < 1 mm; zone of inhibition at 5 µg/disc [4, 18]: < 1 mm; zone of inhibition at 10 µg/disc [4, 19]: < 1 mm; zone of inhibition at 10 µg/disc [4, 20]: < 1 mm |
| CCC1OC(=O)C(C)C(OC2CC(C)(OC)CC(C)O2)C(C)C(OC2OC(C)CC(N(C)C)C2C)C(C)(O)CC(C)CN(C)C(C)C(O)C1(C)O (stereo not shown) [PP007] | <1 mm | <1 mm | <1 mm | <1 mm | <1 mm | <1 mm | <1 mm | <1 mm | <1 mm | <1 mm | <1 mm | <1 mm | <1 mm | <1 mm | <1 mm | <1 mm | – | – | – | – | – |
| Gentamicin [reference compound] | – | – | – | – | – | – | – | – | – | – | – | – | – | – | – | – | – | – | – | – | size of the inhibition zone, S. aureus [1, 21]: 30.4 mm; size of the inhibition zone, E. coli [2, 21]: 27.9 mm; size of the inhibition zone, P. aeruginosa [3, 21]: 27.2 mm; size of the inhibition zone, K. pneumonia [4, 21]: 24.7 mm |
| CCC1OC(=O)C(C)C(OC2CC(C)(OC)C(C)C(C)O2)C(C)C(OC2CC(N(C)C)CC(C)O2)C(C)(O)CC(C)CN(C)C(C)C(O)C1(C)O (stereo not shown) [PP008] | <1 mm | <1 mm | <1 mm | <1 mm | <1 mm | <1 mm | <1 mm | <1 mm | <1 mm | <1 mm | <1 mm | <1 mm | <1 mm | <1 mm | <1 mm | <1 mm | – | – | – | – | – |
| CC[C@H]1OC(=O)[C@H](C)C(O[C@H]2C[C@@](C)(OC)[C@@H](O)[C@H](C)O2)[C@H](C)[C@@H](OC2O[C@H](C)C[C@H](N(C)C)[C@H]2C)[C@](C)(O)C[C@@H](C)CN(C)[C@H](C)[C@@H](O)[C@]1(C)O (stereo partly shown) [PP001] | – | – | – | – | – | – | – | – | – | – | – | – | – | – | – | – | < 1 mm | < 1 mm | < 1 mm | < 1 mm | zone of inhibition at 5 µg/disc [2, 9]: < 1 mm; zone of inhibition at 5 µg/disc [2, 10]: < 1 mm; zone of inhibition at 10 µg/disc [2, 11]: < 1 mm; zone of inhibition at 10 µg/disc [2, 12]: < 1 mm; zone of inhibition at 5 µg/disc [3, 13]: < 1 mm; zone of inhibition at 5 µg/disc [3, 14]: < 1 mm; zone of inhibition at 10 µg/disc [3, 15]: < 1 mm; zone of inhibition at 10 µg/disc [3, 16]: < 1 mm; zone of inhibition at 5 µg/disc [4, 17]: < 1 mm; zone of inhibition at 5 µg/disc [4, 18]: < 1 mm; zone of inhibition at 10 µg/disc [4, 19]: < 1 mm; zone of inhibition at 10 µg/disc [4, 20]: < 1 mm |
| CC[C@H]1OC(=O)[C@H](C)C(O[C@H]2C[C@@](C)(OC)[C@@H](C)[C@H](C)O2)[C@H](C)[C@@H](OC2O[C@H](C)C[C@H](N(C)C)[C@H]2O)[C@](C)(O)C[C@@H](C)CN(C)[C@H](C)[C@@H](O)[C@]1(C)O (stereo partly shown) [PP002] | – | – | – | – | – | – | – | – | – | – | – | – | – | – | – | – | < 1 mm | < 1 mm | < 1 mm | < 1 mm | zone of inhibition at 5 µg/disc [2, 9]: < 1 mm; zone of inhibition at 5 µg/disc [2, 10]: < 1 mm; zone of inhibition at 10 µg/disc [2, 11]: < 1 mm; zone of inhibition at 10 µg/disc [2, 12]: < 1 mm; zone of inhibition at 5 µg/disc [3, 13]: < 1 mm; zone of inhibition at 5 µg/disc [3, 14]: < 1 mm; zone of inhibition at 10 µg/disc [3, 15]: < 1 mm; zone of inhibition at 10 µg/disc [3, 16]: < 1 mm; zone of inhibition at 5 µg/disc [4, 17]: < 1 mm; zone of inhibition at 5 µg/disc [4, 18]: < 1 mm; zone of inhibition at 10 µg/disc [4, 19]: < 1 mm; zone of inhibition at 10 µg/disc [4, 20]: < 1 mm |

From US20160031925A1, “AZITHROMYCIN ANTIMICROBIAL DERIVATIVES WITH NON-ANTIBIOTIC PHARMACEUTICAL EFFECT” (priority 2013, published 2016)
